According to patent US12660819B2, “Herbicidal derivatives” (SYNGENTA CROP PROTECTION AG, priority 2020, dated 2026):

Legend:
Format in all cases: in vivo
[1] = test system: Echinochloa crus-galli (ECHCG); test: Pre-emergence Test (glasshouse, percentage damage to the plant); conditions: 1000 g/ha unless otherwise stated, five-point scale
Lolium perenne (LOLPE) [2] = test: as above; conditions: 1000 g/ha unless otherwise stated, five-point scale
Solanum nigrum (SOLNI) [3] = test: as above; conditions: 1000 g/ha unless otherwise stated, five-point scale
[4] = test system: Ipomoea hederacea (IPOHE); test: as above; conditions: 1000 g/ha unless otherwise stated, five-point scale
Setaria faberi (SETFA) [5] = test: as above; conditions: 1000 g/ha unless otherwise stated, five-point scale
[6] = test system: Echinochloa crus-galli (ECHCG); test: Post-emergence Test (glasshouse, percentage damage to the plant); conditions: post-emergence spray, 1000 g/ha unless otherwise stated, evaluated after 13 days
Method in brief: (§1)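 Spray treatment of sown glasshouse pots at 1000 g/ha (default rate), vehicle acetone/water 50:50 plus 0.5% Tween 20. Read-out: percentage damage after 13 days, converted to a score where 5 denotes 81-100% and 1 denotes 0-20%.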

Setaria faberi (SETFA) [7] = test: as above; conditions: post-emergence spray, 1000 g/ha unless otherwise stated, evaluated after 13 days
Method in brief: (§2)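 Percentage damage to the plant, assessed 13 days after application and scored 1–5 in 20% bands. Pots sown in standard soil received compound at 1000 g/ha unless otherwise stated, sprayed under 24/16 °C, 14 h light, 65% humidity.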

[8] = test system: Amaranthus retoflexus (AMARE); test: as above; conditions: post-emergence spray, 1000 g/ha unless otherwise stated, evaluated after 13 days
Method in brief: as §1

Lolium perenne (LOLPE) [9] = test: as above; conditions: post-emergence spray, 1000 g/ha unless otherwise stated, evaluated after 13 days
Method in brief: as §1

Solanum nigrum (SOLNI) [10] = test: as above; conditions: post-emergence spray, 1000 g/ha unless otherwise stated, evaluated after 13 days
Method in brief: as §1

[11] = test system: Ipomoea hederacea (IPOHE); test: as above; conditions: post-emergence spray, 1000 g/ha unless otherwise stated, evaluated after 13 days
Method in brief: as §2

[12] = test system: Amaranthus retoflexus (AMARE); test: Pre-emergence Test (glasshouse, percentage damage to the plant); conditions: 1000 g/ha unless otherwise stated, five-point scale

Row | Structure (SMILES) | percentage damage to the plant, ECHCG [1] | percentage damage to the plant, LOLPE (Lolium perenne (LOLPE) [2]) | percentage damage to the plant, SOLNI (Solanum nigrum (SOLNI) [3]) | percentage damage to the plant, IPOHE [4] | percentage damage to the plant, SETFA (Setaria faberi (SETFA) [5]) | Post-emergence Test ECHCG, percentage damage to the plant (five-point scale) [6] | Post-emergence Test SETFA, percentage damage to the plant (five-point scale) (Setaria faberi (SETFA) [7]) | Post-emergence Test AMARE, percentage damage to the plant (five-point scale) [8] | Post-emergence Test LOLPE, percentage damage to the plant (five-point scale) (Lolium perenne (LOLPE) [9]) | Post-emergence Test SOLNI, percentage damage to the plant (five-point scale) (Solanum nigrum (SOLNI) [10]) | Post-emergence Test IPOHE, percentage damage to the plant (five-point scale) [11] | percentage damage to the plant, AMARE [12]
1 | CCn1c(C)c(-c2cnn(C)c2)c(=O)c(C(=O)O)c1-c1ccc(Cl)c(Cl)c1 [Compound 1, 2-(3,4-dichlorophenyl)-1-ethyl-6-methyl-5-(1-methylpyrazol-4-yl)-4-oxo-pyridine-3-carboxylic acid] | 5 (5=81-100%) | 4 (4=61-80%) | 5 (5=81-100%) | 4 (4=61-80%) | 5 (5=81-100%) | 5 (5=81-100%) | 5 (5=81-100%) | 5 (5=81-100%) | 3 (3=41-60%) | 5 (5=81-100%) | 4 (4=61-80%) | 1 (1=0-20%)
2 | Cc1c(-c2ccc(Cl)cc2)c(=O)c(C(=O)O)c(-c2ccc(Cl)c(Cl)c2)n1C [Compound 5, 5-(4-chlorophenyl)-2-(3,4-dichlorophenyl)-1,6-dimethyl-4-oxo-pyridine-3-carboxylic acid] | 4 (4=61-80%) | 4 (4=61-80%) | 4 (4=61-80%) | 4 (4=61-80%) | 4 (4=61-80%) | 5 (5=81-100%) | 5 (5=81-100%) | 3 (3=41-60%) | 1 (1=0-20%) | 2 (2=21-40%) | 3 (3=41-60%) | 4 (4=61-80%)
3 | CCn1c(C)c(-c2cccnc2F)c(=O)c(C(=O)O)c1-c1ccc(Cl)c(Cl)c1 [Compound 6, 2-(3,4-dichlorophenyl)-1-ethyl-5-(2-fluoro-3-pyridyl)-6-methyl-4-oxo-pyridine-3-carboxylic acid] | 4 (4=61-80%) | 4 (4=61-80%) | 3 (3=41-60%) | 1 (1=0-20%) | 5 (5=81-100%) | 4 (4=61-80%) | 4 (4=61-80%) | 4 (4=61-80%) | 4 (4=61-80%) | 3 (3=41-60%) | 1 (1=0-20%) | 4 (4=61-80%)
4 | CCn1c(COC)c(-c2ccc(Cl)cc2)c(=O)c(C(=O)O)c1-c1ccc(Cl)c(Cl)c1 [Compound 7, 5-(4-chlorophenyl)-2-(3,4-dichlorophenyl)-1-ethyl-6-(methoxymethyl)-4-oxo-pyridine-3-carboxylic acid] | 2 (2=21-40%) | 1 (1=0-20%) | 1 (1=0-20%) | 1 (1=0-20%) | 2 (2=21-40%) | 4 (4=61-80%) | 4 (4=61-80%) | 5 (5=81-100%) | 1 (1=0-20%) | 2 (2=21-40%) | 2 (2=21-40%) | 
5 | CCn1c(C)c(-c2ccc(F)nc2)c(=O)c(C(=O)O)c1-c1ccc(Cl)c(Cl)c1 [Compound 8, 2-(3,4-dichlorophenyl)-1-ethyl-5-(6-fluoro-3-pyridyl)-6-methyl-4-oxo-pyridine-3-carboxylic acid] | 2 (2=21-40%) | 3 (3=41-60%) | 3 (3=41-60%) | 1 (1=0-20%) | 4 (4=61-80%) | 4 (4=61-80%) | 5 (5=81-100%) | 5 (5=81-100%) | 3 (3=41-60%) | 5 (5=81-100%) | 4 (4=61-80%) | 3 (3=41-60%)
6 | CCn1c(C)c(-c2ccc(Cl)c(F)c2)c(=O)c(C(=O)O)c1-c1ccc(Cl)c(Cl)c1 [Compound 9, 5-(4-chloro-3-fluoro-phenyl)-2-(3,4-dichlorophenyl)-1-ethyl-6-methyl-4-oxo-pyridine-3-carboxylic acid] | 5 (5=81-100%) | 1 (1=0-20%) | 3 (3=41-60%) | 1 (1=0-20%) | 4 (4=61-80%) | 5 (5=81-100%) | 5 (5=81-100%) | 5 (5=81-100%) | 1 (1=0-20%) | 3 (3=41-60%) | 3 (3=41-60%) | 5 (5=81-100%)
7 | CCn1c(C)c(-c2ccc(Cl)cc2)c(=O)c(C(=O)O)c1-c1ccc(Cl)c(Cl)c1 [Compound 10, 5-(4-chlorophenyl)-2-(3,4-dichlorophenyl)-1-ethyl-6-methyl-4-oxo-pyridine-3-carboxylic acid] | 3 (3=41-60%) | 1 (1=0-20%) | 4 (4=61-80%) | 2 (2=21-40%) | 4 (4=61-80%) | 4 (4=61-80%) | 5 (5=81-100%) | 5 (5=81-100%) | 3 (3=41-60%) | 5 (5=81-100%) | 4 (4=61-80%) | 5 (5=81-100%)
8 | CCn1c(C)c(-c2ccc(F)cc2)c(=O)c(C(=O)O)c1-c1ccc(Cl)c(Cl)c1 [Compound 11, 2-(3,4-dichlorophenyl)-1-ethyl-5-(4-fluorophenyl)-6-methyl-4-oxo-pyridine-3-carboxylic acid] | 5 (5=81-100%) | 1 (1=0-20%) | 5 (5=81-100%) | 2 (2=21-40%) | 5 (5=81-100%) | 4 (4=61-80%) | 4 (4=61-80%) | 4 (4=61-80%) | 2 (2=21-40%) | 5 (5=81-100%) | 4 (4=61-80%) | 5 (5=81-100%)
